Assay in all cases: Preemergent activity
Common to all, as to type: in vivo

The test system of test [1] is Johnson Grass. To be noted: Sorghum halepense, pre-emergence, read-out: Preemergence Control. A digest of the protocol: (§1)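 Test compound was dissolved in acetone at twice the final concentration, then mixed with an equal volume of water containing 0.1% w/w Tween-20. The resulting emulsion was sprayed uniformly at a predetermined rate onto sandy loam seed beds sown with each species. Controls received acetone–Tween-20–water only.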

For test [2], the system named is Wheat. To be noted: Triticum aestivum, pre-emergence, read-out: Preemergence Control. A digest of the protocol: as §1
The test system of test [3] is Crabgrass. An outline of the steps:
as §1

The subject of test [4] is Wild Oats. The conditions noted are these: Avena fatua, pre-emergence, read-out: Preemergence Control. A digest of the protocol: as §1

Structures are written as SMILES.

`COC(=O)C(C)Oc1ccc(Oc2ccc(Cl)cc2F)cc1` (racemic) [Example 4-Chloro-, 2-[4-(4-chloro-2-fluorophenoxy)phenoxy]propionic acid methyl ester]: the pest or weed control at 70 g/ha in test [1] (0.07 kgs/hectare) and in test [4] (0.07 kgs/hectare) was 0% each time. In addition, the pest or weed control at 140 g/ha in test [1] (0.14 kgs/hectare) and in test [4] (0.14 kgs/hectare) was 0% in each case. For the same molecule, the pest or weed control at 280 g/ha in test [1] (0.28 kgs/hectare) turned out to be 0%; in test [4] (0.28 kgs/hectare) it was 20%. The results for the pest or weed control at 560 g/ha in test [1] (0.56 kgs/hectare) and in test [4] (0.56 kgs/hectare) were 60% and 50%, respectively. Moreover, the pest or weed control at 1120 g/ha in test [1] (1.12 kgs/hectare) worked out at 80%; in test [4] (1.12 kgs/hectare) it was 70%. Also, in test [2] (0.07 kgs/hectare), the plant injury at 70 g/ha stood at 0%. Further, the plant injury at 140 g/ha in test [2] (0.14 kgs/hectare) was determined as 0%. The plant injury at 280 g/ha in test [2] (0.28 kgs/hectare) turned out to be 0%. Moreover, the plant injury at 560 g/ha in test [2] (0.56 kgs/hectare) was determined as 0%. In addition, the plant injury at 1120 g/ha in test [2] (1.12 kgs/hectare) turned out to be 0%. Further, the “Preemergence Control” value is recorded as 60% in test [3] (0.07 kgs/hectare); 100% in test [3] (0.14 kgs/hectare); 100% in test [3] (0.28 kgs/hectare); 100% in test [3] (0.56 kgs/hectare); 100% in test [3] (1.12 kgs/hectare).
